According to patent publication US20250092086A1, “CELASTROL SALTS, CRYSTALLINE FORMS, AND USES THEREOF” (ERX Pharmaceuticals Inc., priority 2022, published 2025):
“Also recorded” adds a separate entry of the source. Where two headings read alike, the source gives them in different places.

How the values were obtained:
[1] = counter-ion, cited from earlier work; for pKa (B): basic function
[2] = Hygroscopicity (DVS), water sorption/desorption at 37° C.; format: physicochemical; conditions: for DVS (hygroscopicity): water sorption/desorption isotherms at 37° C., 0-95% RH
Procedure: The hygroscopicity experiments were carried out with a DVS Intrinsic from S.M.S. This technique is designed to accurately measure a sample's change in mass as it sorbs precisely controlled concentrations of water vapors in an air carrier gas. The method used for DVS experiments (at 37° C.) is summarized below. • Equilibrating 10 min at 50% RH • Decreasing to 0% RH in 60 min • Equilibrating 10 min at 0% RH • Increasing to 95% RH in 280 min • Equilibrating 10 min at 95% RH • Decreasing to 50% RH in 100 min • Equilibrating 20 min at 50% RH
The hygroscopic experiments were carried out with a DVS Intrinsic from S.M.S. This technique is designed to accurately measure a sample's change in mass as it sorbs precisely controlled concentrations of water vapors in an air carrier gas. All the methods used for DVS experiments are summarized below. It should be noticed that the temperature and relative humidity (RH) are pre-set according to the initial temperature and RH.
• Equilibrating 120 min at 50% RH • Decreasing to 0% RH in 60 min • Equilibrating 150 min at 0% RH • Increasing to 95% RH in 200 min • Equilibrating 360 min at 95% RH • Decreasing to 50% RH in 100 min • Equilibrating 150 min at 50% RH
The hygroscopicity experiments were carried out with a DVS Intrinsic from S.M.S. This technique is designed to accurately measure a sample's change in mass as it sorbs precisely controlled concentrations of water vapors in an air carrier gas. All the methods used for DVS experiments are summarized below, and it should be noticed that the temperature and relative humidity (RH) are pre-set according to the initial temperature and RH.
The hygroscopicity experiments were carried out with a DVS Intrinsic from S.M.S. This technique is designed to accurately measure a sample's change in mass as it sorbs precisely controlled concentrations of water vapors in an air carrier gas. All the methods used for DVS experiments are summarized below. It should be noticed that the temperature and relative humidity (RH) are pre-set according to the initial temperature and RH.

[3] = XRPD under temperature and relative humidity; format: physicochemical; conditions: for XRPD under temperature: impact / new crystalline phase: 25 to 100° C., RH set at 30%; for XRPD under relative humidity: impact / new crystalline phase: RH 10 to 80-90% at 40° C.
Procedure: Method 1: influence of temperature at ambient RH. RH was set at 30% in order to simulate a RH near from the ambient RH, and the temperature studied were 25-[…]-100° C.
Method 2: influence on RH at 40° C. The RH studied was at 10-30-80%.
These experiments studied the influence of temperature at ambient RH. RH was wet at 30% in order to simulate a RH near from the ambient RH, and the temperatures studied were 25-50-100° C.
These experiments studied the influence on RH at 40° C. The RH studied were 10-30-88%.
Using Method 1, the influence of temperature at ambient RH was studied. RH was set at 30% in order to simulate a RH near from the ambient RH, and the temperatures studied were 25-50-100° C. FIG. 24 provides the XRPD pattern representing the influence of temperature on Compound 1 Form I.
Using Method 2, the influence on RH at 40° C. was studied. The RH studied were 10-30-90%.
Using Method 1, the influence of temperature at ambient RH was studied. RH was set at 30% in order to simulate a RH near from the ambient RH. Temperature studied: 25-50-100° C.
Using Method 2, the influence on RH at 40° C. was studied at 10-30-90%.

[4] = Solubility in water at 37° C.; format: physicochemical
From the text: This compound can be considered as very slightly soluble (<1 g/L).

Row | Structure (SMILES) | pKa (A) ([1]; acid function) | pKa (B) [1] | Hysteresis with the final mass at 50% RH ([2]; DVS, 37° C.) [wt-%] | Mass decrease as the RH was lowered to 0% ([2]; DVS, 37° C.) [% w/w] | Mass increase as the RH was increased to 95% ([2]; DVS, 37° C.) [% w/w] | Water uptake, water sorption/desorption isotherms ([2]; DVS, 37° C.) [wt-%] | DVS (hygroscopicity) [2] | DVS (hygroscopicity) ([2]; listed as Free compound) | DVS (hygroscopicity) ([2]; listed as free Celastrol) | DVS (hygroscopicity) ([2]; listed as free compound) | XRPD under temperature: impact / new crystalline phase ([3]; listed as Free compound) | XRPD under temperature: impact / new crystalline phase ([3]; listed as free Celastrol) | XRPD under temperature: impact / new crystalline phase ([3]; listed as free compound) | XRPD under relative humidity: impact / new crystalline phase ([3]; listed as Free compound) | XRPD under relative humidity: impact / new crystalline phase ([3]; listed as free Celastrol) | XRPD under relative humidity: impact / new crystalline phase ([3]; listed as free compound) | Physical stability under the conditions tested (temperature and RH) ([3]; XRPD, 25-100° C. and 10-90% RH at 40° C., listed as free compound) | Solubility in water at 37° C. [4] | solubility ([4]; 37 °C) [µg/mL] | Solubility in water at 37° C. ([4]; listed as Free compound)
1 | NCCCC[C@H](N)C(=O)O [L-Lysine] | 2.16 | 9.18 | – | – | – | – | – | – | – | – | – | – | – | – | – | – | – | – | – | –
2 | NC(CO)(CO)CO [trometamol, tris(hydroxymethyl)aminomethane] | – | 8.2 | – | – | – | – | – | – | – | – | – | – | – | – | – | – | – | – | – | –
3 | CC1=C(O)C(=O)C=C2C1=CC=C1[C@@]2(C)CC[C@@]2(C)[C@@H]3C[C@](C)(C(=O)O)CC[C@]3(C)CC[C@]12C [Compound 1, (2R,4aS,6aS,12bR,14aS,14bR)-10-hydroxy-2,4a,6a,9,12b,14a-hexamethyl-11-oxo-1,2,3,4,4a,5,6,6a,11,12b,13,14,14a,14b-tetradecahydropicene-2-carboxylic acid] | – | – | ~0.1 | ~0.1 | ~0.2 | < 0.2 | non-hygroscopic | Non hygroscopic | Non-hygroscopic | non hygroscopic | =>No new crystalline phase until | no new crystalline phase until 100 °C | No impact | =>No new crystalline phase from | no new crystalline phase from 10 to 90% RH | physically stable under relative humidity; also recorded: No impact | physically stable | below 1 g/L | < 1000 | (s < 1 g/L)
